Where only a bound is given, the exact number is not on record here.

The experiment addresses T1, Wee-1 kinase (Homo sapiens, UniProt P30291).
T1 construct: purchased Invitrogen PV3817
In words: Measurement of Wee-1 kinase activity (ADP-Glo luminescent kit). It counts as biochemical. The method, then:
Method 1: Measurement of Wee-1 Kinase Activity
In the measurement of Wee-1 activity, a commercial peptide Poly(Lys Tyr (4:1)) hydrobromide was purchased from Sigma Aldrich and used as the substrate. Activated Wee-1 kinase was purchased from Invitrogen (PV3817) and an ADP-Glo luminescent kit was purchased from Promega.
All reactions took place in […] volumes in reaction buffer containing 40 mM Tris-HCl and 20 mM magnesium chloride, supplemented with 0.1 mg/mL bovine serum albumin and 2 mM DTT. Compounds were serially diluted in buffer and 5 μL of each concentration pipetted into a white 384 well plate (Sigma Aldrich M6186). A 5 μL aliquot of the Wee-1 enzyme was added to each well and the plate centrifuged for 1 min to ensure mixing of the enzyme and inhibitor.
The plate was incubated at room temperature for 30 minutes before the addition of 2.0 μg/mL of substrate and 30 μM ATP in a 5 μL aliquot. The plate was centrifuged for one minute and incubated for 1 h at RT.
15 µL of ADP-Glo stop reagent was added to each well to quench the reaction and deplete unconverted ATP. The plate was incubated for a further 40 min in the dark at RT.
30 μL of ADP-Glo kinase detection reagent was added to each well, converting ADP to ATP, catalysing the generation of luciferin by luciferase. The plate was shaken for 1 min, and incubated in the dark for an additional hour.
Luminescence from each well was detected using the Biotek Synergy4 HD plate reader and the percentage inhibition of kinase activity calculated for each inhibitor tested. Positive (kinase only) and negative (no kinase) controls were added to each plate to ensure specific interaction of kinase and inhibitor. The IC50 concentration for each inhibitor was calculated by plotting the percentage kinase inhibition against concentration of inhibitor and the curve generated by non-linear regression fitting.
A general note: ADP-Glo turns the ADP formed in a reaction into a luminescent signal.

T1 sequence (P30291 whole entry): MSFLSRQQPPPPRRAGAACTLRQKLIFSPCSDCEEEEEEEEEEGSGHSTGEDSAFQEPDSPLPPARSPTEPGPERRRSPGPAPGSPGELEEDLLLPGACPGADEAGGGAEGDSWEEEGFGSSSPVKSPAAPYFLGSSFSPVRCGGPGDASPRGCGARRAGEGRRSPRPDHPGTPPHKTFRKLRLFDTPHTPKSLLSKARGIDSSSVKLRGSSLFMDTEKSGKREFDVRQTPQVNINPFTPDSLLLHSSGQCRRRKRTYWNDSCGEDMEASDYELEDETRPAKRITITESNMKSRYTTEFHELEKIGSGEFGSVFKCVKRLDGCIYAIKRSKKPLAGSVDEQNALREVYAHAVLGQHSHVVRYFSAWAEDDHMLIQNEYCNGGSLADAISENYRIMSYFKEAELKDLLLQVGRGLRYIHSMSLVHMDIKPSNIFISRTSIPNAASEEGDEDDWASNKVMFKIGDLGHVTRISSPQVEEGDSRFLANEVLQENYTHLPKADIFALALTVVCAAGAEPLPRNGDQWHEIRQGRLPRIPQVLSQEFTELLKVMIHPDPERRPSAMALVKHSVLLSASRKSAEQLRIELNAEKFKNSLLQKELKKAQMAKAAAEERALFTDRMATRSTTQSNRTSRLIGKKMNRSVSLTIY

One may read the IC50 as the midpoint of a concentration-inhibition curve. Consider `COCc1cc(Nc2ncc3c(n2)N(C)CN(c2c(Cl)cccc2Cl)C3=O)ccc1N1CCN(C)CC1` [Example 69], for which the IC50 is 10 to 100 nM.
As to `C[C@@H]1CN[C@@H](C)CN1c1ccc(Nc2ncc3c(n2)N(C)CN(c2ccccc2Cl)C3=O)cc1F` [Example 110, 3-(2-chlorophenyl)-7-((4-((2R,5S)-2,5-dimethylpiperazin-1-yl)-3-fluorophenyl)amino)-1-methyl-2,3-dihydropyrimido[4,5-d]pyrimidin-4(1H)-one], the IC50 fell in the range of 10 to 100 nM.
For `COc1cc(Nc2ncc3c(n2)N(C)CN(c2c(Cl)cccc2Cl)C3=O)ccc1C1CCN(C)CC1` [Example 183, 3-(2,6-dichlorophenyl)-7-((3-methoxy-4-(1-methylpiperidin-4-yl)phenyl)amino)-1-methyl-2,3-dihydropyrimido[4,5-d]pyrimidin-4(1H)-one], the IC50 is at most 10 nM.
For `CN1CN(c2ccccc2Cl)C(=O)c2cnc(Nc3ccc(N4CC5C[C@H]4CN5)cc3)nc21` (stereo in doubt) [Example 104, 7-((4-((1S,4R)-2,5-diazabicyclo[2.2.1]heptan-2-yl)phenyl)amino)-3-(2-chlorophenyl)-1-methyl-2,3-dihydropyrimido[4,5-d]pyrimidin-4(1H)-one], the IC50 is at least 100 nM.
For the compound `CN1CN(c2c(Cl)cccc2Cl)C(=O)c2cnc(Nc3ccc(N4CCN(C)C(C(F)(F)F)C4)cc3)nc21` (centres unmarked) [Example 68, 3-(2,6-dichlorophenyl)-1-methyl-7-((4-(4-methyl-3-(trifluoromethyl)piperazin-1-yl)phenyl)amino)-2,3-dihydropyrimido[4,5-d]pyrimidin-4(1H)-one], the IC50 is at least 100 nM.
`COc1ccc(CN2CN(c3c(Cl)cccc3Cl)C(=O)c3cnc(Nc4ccc(N5CCNCC5)cc4)nc32)cc1` [Example 8, 3-(2,6-Dichlorophenyl)-1-(4-methoxybenzyl)-7-((4-(piperazin-1-yl)phenyl)amino)-2,3-dihydropyrimido[4,5-d]pyrimidin-4(1H)-one]: the IC50 was at least 100 nM.
As to `COc1cc(Nc2ncc3c(n2)N(C)CN(c2ccccc2Cl)C3=O)ccc1N1C[C@@H]2C[C@H]1CN2` [Example 107, 7-((4-((1S,4S)-2,5-diazabicyclo[2.2.1]heptan-2-yl)-3-methoxyphenyl)amino)-3-(2-chlorophenyl)-1-methyl-2,3-dihydropyrimido[4,5-d]pyrimidin-4(1H)-one], the IC50 was in the range of 10 to 100 nM.
For the compound `CN1CN(c2c(F)cccc2Cl)C(=O)c2cnc(Nc3ccc(N4CCOCC4)c(CO)c3)nc21` [Example 57], the IC50 is 10 to 100 nM.
On to `C[C@@H]1CN[C@@H](C)CN1c1ccc(Nc2ncc3c(n2)N(C)CN(c2c(F)cccc2Cl)C3=O)cc1` [Example 93, 3-(2-chloro-6-fluorophenyl)-7-((4-((2R,5S)-2,5-dimethylpiperazin-1-yl)phenyl)amino)-1-methyl-2,3-dihydropyrimido[4,5-d]pyrimidin-4(1H)-one], for which the IC50 was in the range of 10 to 100 nM.
Take `COC[C@H]1CN(c2ccc(Nc3ncc4c(n3)N(C)CN(c3c(Cl)cccc3Cl)C4=O)cc2)CCN1C` [Example 65, (R)-3-(2,6-dichlorophenyl)-7-((4-(3-(methoxymethyl)-4-methylpiperazin-1-yl)phenyl)amino)-1-methyl-2,3-dihydropyrimido[4,5-d]pyrimidin-4(1H)-one]: the IC50 was in the range of 10 to 100 nM.
On to `C[C@@H]1CN(c2ccc(Nc3ncc4c(n3)N(C)CN(c3c(Cl)cccc3Cl)C4=O)cc2F)CCN1C` [Example 47, (R)-3-(2,6-dichlorophenyl)-7-((4-(3,4-dimethylpiperazin-1-yl)-3-fluorophenyl)amino)-1-methyl-2,3-dihydropyrimido[4,5-d]pyrimidin-4(1H)-one], for which the half-maximal inhibitory concentration (IC50) lay within 10 to 100 nM.
Take `C[C@@H]1CN[C@@H](C)CN1c1ccc(Nc2ncc3c(n2)N(C)CN(c2ccccc2Cl)C3=O)cc1` [Example 98, 3-(2-chlorophenyl)-7-((4-((2R,5S)-2,5-dimethylpiperazin-1-yl)phenyl)amino)-1-methyl-2,3-dihydropyrimido[4,5-d]pyrimidin-4(1H)-one]: the IC50 fell in the range of 10 to 100 nM.
As for `CN1CN(c2c(F)cccc2Cl)C(=O)c2cnc(Nc3ccc(N4C[C@@H]5C[C@H]4CN5)cc3)nc21` [Example 54, 7-((4-((1S,4S)-2,5-diazabicyclo[2.2.1]heptan-2-yl)phenyl)amino)-3-(2-chloro-6-fluorophenyl)-1-methyl-2,3-dihydropyrimido[4,5-d]pyrimidin-4(1H)-one], the IC50 was 10 to 100 nM.
In the case of `C[C@@H]1CN(c2ccc(Nc3ncc4c(n3)N(C3CC3)CN(c3c(Cl)cccc3Cl)C4=O)cc2)CCN1` [Example 85, (R)-1-cyclopropyl-3-(2,6-dichlorophenyl)-7-((4-(3-methylpiperazin-1-yl)phenyl)amino)-2,3-dihydropyrimido[4,5-d]pyrimidin-4(1H)-one], the IC50 is 10 to 100 nM.
Turning to `C[C@@H]1CN[C@@H](C)CN1c1ccc(Nc2ncc3c(n2)N(C)CN(c2c(Cl)cccc2Cl)C3=O)cc1F` [Example 81, 3-(2,6-dichlorophenyl)-7-((4-((2R,5S)-2,5-dimethylpiperazin-1-yl)-3-fluorophenyl)amino)-1-methyl-2,3-dihydropyrimido[4,5-d]pyrimidin-4(1H)-one], the IC50 lay within 10 to 100 nM.
For `CN1CN(c2ccccc2Cl)C(=O)c2cnc(Nc3ccc(N4CCNCC4)cc3)nc21` [Example 24, 3-(2-Chlorophenyl)-1-methyl-7-((4-(piperazin-1-yl)phenyl)amino)-2,3-dihydropyrimido[4,5-d]pyrimidin-4(1H)-one], the IC50 is 10 to 100 nM.
In the case of `Cc1cccc(Cl)c1N1CN(C)c2nc(Nc3ccc(N4CCN[C@H](C)C4)cc3)ncc2C1=O` [Example 100, (R)-3-(2-chloro-6-methylphenyl)-1-methyl-7-((4-(3-methylpiperazin-1-yl)phenyl)amino)-2,3-dihydropyrimido[4,5-d]pyrimidin-4(1H)-one], the IC50 was 10 to 100 nM.
Regarding `CN1CN(c2c(Cl)cccc2Cl)C(=O)c2cnc(Nc3ccc(N4CCN(C)[C@H](CO)C4)c(F)c3)nc21` [Example 50, (S)-3-(2,6-dichlorophenyl)-7-((3-fluoro-4-(3-(hydroxymethyl)-4-methylpiperazin-1-yl)phenyl)amino)-1-methyl-2,3-dihydropyrimido[4,5-d]pyrimidin-4(1H)-one], the IC50 lay within 10 to 100 nM.
As for `CC(=O)N1CCN(c2ccc(Nc3ncc4c(n3)N(C)CN(c3c(Cl)cccc3Cl)C4=O)cc2)CC1` [Example 125, 7-((4-(4-acetylpiperazin-1-yl)phenyl)amino)-3-(2,6-dichlorophenyl)-1-methyl-2,3-dihydropyrimido[4,5-d]pyrimidin-4(1H)-one], the IC50 is 10 to 100 nM.
As for `CN1CN(c2ccccc2Cl)C(=O)c2cnc(Nc3ccc(N4CCNC5(CC5)C4)cc3)nc21` [Example 105, 7-((4-(4,7-diazaspiro[2.5]octan-7-yl)phenyl)amino)-3-(2-chlorophenyl)-1-methyl-2,3-dihydropyrimido[4,5-d]pyrimidin-4(1H)-one], the figure is 10 to 100 nM; as for `CN1CN(c2c(Cl)cccc2Cl)C(=O)c2cnc(Nc3ccc(N4CCNC(C(F)(F)F)C4)cc3)nc21` (centres unmarked) [Example 62, 3-(2,6-dichlorophenyl)-1-methyl-7-((4-(3-(trifluoromethyl)piperazin-1-yl)phenyl)amino)-2,3-dihydropyrimido[4,5-d]pyrimidin-4(1H)-one], 10 to 100 nM.
For `C[C@@H]1CN(C)[C@@H](C)CN1c1ccc(Nc2ncc3c(n2)N(C)CN(c2c(Cl)cccc2Cl)C3=O)cc1` [Example 45, 3-(2,6-dichlorophenyl)-1-methyl-7-((4-((2R,5S)-2,4,5-trimethylpiperazin-1-yl)phenyl)amino)-2,3-dihydropyrimido[4,5-d]pyrimidin-4(1H)-one], the IC50 is 10 to 100 nM.
As for `CN1CN(c2c(Cl)cccc2Cl)C(=O)c2cnc(Nc3ccc(N4CC5COCC(C4)N5C)cc3)nc21` [Example 71, 3-(2,6-dichlorophenyl)-1-methyl-7-((4-(9-methyl-3-oxa-7,9-diazabicyclo[3.3.1]nonan-7-yl)phenyl)amino)-2,3-dihydropyrimido[4,5-d]pyrimidin-4(1H)-one], the figure is 10 to 100 nM; as for `COc1cc(Nc2ncc3c(n2)N(C)CN(c2c(Cl)cccc2Cl)C3=O)ccc1C1CCNCC1` [Example 182, 3-(2,6-dichlorophenyl)-7-((3-methoxy-4-(piperidin-4-yl)phenyl)amino)-1-methyl-2,3-dihydropyrimido[4,5-d]pyrimidin-4(1H)-one], at most 10 nM; as for `C[C@@H]1CN(c2ccc(Nc3ncc4c(n3)N(C)CN(c3ccccc3Cl)C4=O)cc2F)CCN1` [Example 99, (R)-3-(2-chlorophenyl)-7-((3-fluoro-4-(3-methylpiperazin-1-yl)phenyl)amino)-1-methyl-2,3-dihydropyrimido[4,5-d]pyrimidin-4(1H)-one], 10 to 100 nM.
Consider `CN1CN(c2c(Cl)cccc2Cl)C(=O)c2cnc(Nc3ccc4c(c3)C3CCC(C4)N3)nc21` (centres unmarked) [Example 70, 3-(2,6-dichlorophenyl)-1-methyl-7-((6,7,8,9-tetrahydro-5H-5,8-epiminobenzo[7]annulen-3-yl)amino)-2,3-dihydropyrimido[4,5-d]pyrimidin-4(1H)-one], for which the IC50 fell in the range of 10 to 100 nM.

(Values after patent publication US9850247B2 (Almac Discovery Limited, priority 2013, dated 2017).)
